From ChEMBL document CHEMBL1201862, “PubChem BioAssay data set” (2004)
Activity calls are given as the source filed them.

Tests used:
[1] = A Cell Based Secondary Assay To Explore Cytotoxicity of Compounds that Sensitize Mycobacterium Tuberculosis to Beta-Lactam Antibiotics.; assay type: functional
[2] = target: T1, Bcl-2-like protein 10 (Homo sapiens, UniProt Q9HD36); assay: Biochemical TR3 FP assay of Bcl-B inhibitor potency, EC50 (AID 1243); assay type: functional
T1 sequence (Q9HD36 whole entry): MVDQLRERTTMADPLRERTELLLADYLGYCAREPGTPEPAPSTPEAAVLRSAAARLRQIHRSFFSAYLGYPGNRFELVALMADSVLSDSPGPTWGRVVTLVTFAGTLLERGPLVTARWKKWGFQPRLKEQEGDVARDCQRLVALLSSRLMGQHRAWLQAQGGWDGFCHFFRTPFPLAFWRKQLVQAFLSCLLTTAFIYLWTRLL

[3] = tested on: Streptococcus; assay: Luminescence Microorganism-Based Dose Response Follow up to Identify Compounds Cytotoxic to Streptococcus. [Related pubchem assays: 1677 (Project Summary), 1915, 1914, 1902 (Retest at Dose), 1900 (Counter Screen), 1662 (Primary HTS)]; assay type: functional, organism-based
[4] = tested on: Streptococcus; assay: Group A Streptococcus viability loss, dose response, counter-screen for streptokinase expression inhibitor project, luminescence, BacTiterGlo (AID 1915); assay type: functional, organism-based;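 further: potency for reduction of bacterial viability or growth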
[5] = tested on: Streptococcus sp. 'group A'; assay: growth inhibition of control SK(-) GAS strain, dose response, counter-screen for streptokinase expression inhibitor project, luminescence, kanamycin, BacTiterGlo, confirmation (AID 1900); assay type: functional, organism-based
[6] = target: T2, Aminopeptidase N (Plasmodium falciparum FcB1/Columbia, UniProt O96935); assay: P. falciparum M1AAP inhibitors, biochemical, fluorogenic H-Leu-NHMec substrate, 1536-well (AID 1445); design: species or system Plasmodium falciparum 3D7, 3D7
T2 sequence (O96935 whole entry): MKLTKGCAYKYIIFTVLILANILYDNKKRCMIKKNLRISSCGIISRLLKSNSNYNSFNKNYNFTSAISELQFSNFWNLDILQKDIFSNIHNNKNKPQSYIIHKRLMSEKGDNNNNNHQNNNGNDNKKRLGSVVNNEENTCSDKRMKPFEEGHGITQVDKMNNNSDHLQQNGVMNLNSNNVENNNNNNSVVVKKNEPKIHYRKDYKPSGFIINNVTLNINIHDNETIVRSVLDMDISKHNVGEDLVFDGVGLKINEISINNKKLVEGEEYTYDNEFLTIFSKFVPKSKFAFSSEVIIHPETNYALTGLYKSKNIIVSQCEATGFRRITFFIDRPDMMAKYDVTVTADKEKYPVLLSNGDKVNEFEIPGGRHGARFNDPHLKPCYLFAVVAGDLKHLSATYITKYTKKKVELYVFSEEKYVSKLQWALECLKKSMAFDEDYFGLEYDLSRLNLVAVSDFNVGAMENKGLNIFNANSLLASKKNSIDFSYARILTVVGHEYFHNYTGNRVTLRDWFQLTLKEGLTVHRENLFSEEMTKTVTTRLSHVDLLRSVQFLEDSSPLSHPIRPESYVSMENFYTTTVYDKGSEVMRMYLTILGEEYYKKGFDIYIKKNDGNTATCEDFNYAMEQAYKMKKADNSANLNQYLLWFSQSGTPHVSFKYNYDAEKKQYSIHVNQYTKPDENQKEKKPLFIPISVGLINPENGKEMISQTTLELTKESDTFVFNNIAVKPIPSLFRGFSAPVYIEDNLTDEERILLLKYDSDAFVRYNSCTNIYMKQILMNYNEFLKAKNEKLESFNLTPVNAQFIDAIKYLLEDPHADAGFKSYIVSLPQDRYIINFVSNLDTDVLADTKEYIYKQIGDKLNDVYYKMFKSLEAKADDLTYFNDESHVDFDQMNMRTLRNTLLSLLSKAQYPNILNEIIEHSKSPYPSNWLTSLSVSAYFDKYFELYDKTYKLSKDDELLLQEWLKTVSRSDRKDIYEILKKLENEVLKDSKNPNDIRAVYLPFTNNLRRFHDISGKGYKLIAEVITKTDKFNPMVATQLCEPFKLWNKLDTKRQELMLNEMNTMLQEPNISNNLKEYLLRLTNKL

[7] = target: T3, Corticotropin-releasing factor receptor 2/Corticotropin-releasing factor-binding protein (Homo sapiens, UniProt P24387+Q13324); assay: Dose Response confirmation of uHTS hits for small molecule antagonists of the CRF-binding protein and CRF-R2 receptor complex.; assay type: functional; details: read-out: IC50_Mean
T3 sequence (Q13324 whole entry): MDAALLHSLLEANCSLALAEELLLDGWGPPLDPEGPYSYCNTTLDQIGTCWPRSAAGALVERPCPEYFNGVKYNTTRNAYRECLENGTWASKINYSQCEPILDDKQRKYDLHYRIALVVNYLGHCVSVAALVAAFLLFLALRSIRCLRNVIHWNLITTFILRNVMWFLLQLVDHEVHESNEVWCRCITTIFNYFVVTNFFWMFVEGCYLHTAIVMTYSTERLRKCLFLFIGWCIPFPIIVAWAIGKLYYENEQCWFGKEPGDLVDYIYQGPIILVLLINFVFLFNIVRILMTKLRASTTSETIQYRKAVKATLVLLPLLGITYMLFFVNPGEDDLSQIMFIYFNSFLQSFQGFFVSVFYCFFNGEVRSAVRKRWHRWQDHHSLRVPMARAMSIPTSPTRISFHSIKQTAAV
T3 sequence (P24387 whole entry): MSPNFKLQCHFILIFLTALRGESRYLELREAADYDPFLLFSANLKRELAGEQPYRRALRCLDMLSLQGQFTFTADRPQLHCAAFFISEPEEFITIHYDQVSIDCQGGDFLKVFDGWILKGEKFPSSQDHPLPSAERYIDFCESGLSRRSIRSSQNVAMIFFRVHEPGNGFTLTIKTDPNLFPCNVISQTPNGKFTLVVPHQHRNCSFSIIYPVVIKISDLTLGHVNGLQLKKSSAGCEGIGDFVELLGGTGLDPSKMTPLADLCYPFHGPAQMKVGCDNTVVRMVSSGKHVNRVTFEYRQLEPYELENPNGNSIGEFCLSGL

[8] = target: T3, Corticotropin-releasing factor receptor 2/Corticotropin-releasing factor-binding protein; assay: activators of CRF receptor 2 with binding protein – uHTS hits, confirmation (AID 602473); assay type: functional; details: read-out: EC50_Mean
[9] = target: Transitional endoplasmic reticulum ATPase (Homo sapiens, UniProt P55072, C522A); assay: C522A mutant p97 ATPase inhibitors, dose response, counter-screen for p97 inhibitor project, biochemical, luminescence (AID 1544)
Transitional endoplasmic reticulum ATPase (Homo sapiens, UniProt P55072, C522A), sequence (P55072 2-806 C522A limits assumed): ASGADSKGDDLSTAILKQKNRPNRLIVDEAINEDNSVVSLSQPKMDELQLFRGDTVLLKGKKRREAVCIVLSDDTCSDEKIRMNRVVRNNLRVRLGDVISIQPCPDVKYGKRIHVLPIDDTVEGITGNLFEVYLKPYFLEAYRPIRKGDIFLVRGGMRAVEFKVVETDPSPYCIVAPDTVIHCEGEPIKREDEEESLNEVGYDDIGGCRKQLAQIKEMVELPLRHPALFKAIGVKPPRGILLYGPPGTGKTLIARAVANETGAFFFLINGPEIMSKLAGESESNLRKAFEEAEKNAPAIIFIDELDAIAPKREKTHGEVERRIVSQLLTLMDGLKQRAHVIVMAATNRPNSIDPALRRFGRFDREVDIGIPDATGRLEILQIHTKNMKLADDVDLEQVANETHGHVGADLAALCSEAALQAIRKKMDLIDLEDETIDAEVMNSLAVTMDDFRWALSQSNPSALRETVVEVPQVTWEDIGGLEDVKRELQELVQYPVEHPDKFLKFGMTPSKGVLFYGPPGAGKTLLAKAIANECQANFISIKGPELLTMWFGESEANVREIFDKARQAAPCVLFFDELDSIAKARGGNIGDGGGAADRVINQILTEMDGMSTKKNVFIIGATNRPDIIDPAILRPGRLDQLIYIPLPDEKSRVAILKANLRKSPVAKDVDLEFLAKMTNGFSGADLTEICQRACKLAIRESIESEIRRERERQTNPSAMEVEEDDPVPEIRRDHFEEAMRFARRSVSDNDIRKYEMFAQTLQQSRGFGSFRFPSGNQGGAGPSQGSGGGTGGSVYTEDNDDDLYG

[10] = CRF-BP/CRF-R2 complex antagonists, dose response, cell-based, uHTS hits, 384-well (AID 651639); assay type: functional, Homo sapiens; details: read-out: IC50_Mean
[11] = target: Transitional endoplasmic reticulum ATPase (Homo sapiens, UniProt P55072); assay: p97 ATPase inhibitors, dose response, biochemical (AID 1534)
Transitional endoplasmic reticulum ATPase (Homo sapiens, UniProt P55072), sequence (P55072 whole entry): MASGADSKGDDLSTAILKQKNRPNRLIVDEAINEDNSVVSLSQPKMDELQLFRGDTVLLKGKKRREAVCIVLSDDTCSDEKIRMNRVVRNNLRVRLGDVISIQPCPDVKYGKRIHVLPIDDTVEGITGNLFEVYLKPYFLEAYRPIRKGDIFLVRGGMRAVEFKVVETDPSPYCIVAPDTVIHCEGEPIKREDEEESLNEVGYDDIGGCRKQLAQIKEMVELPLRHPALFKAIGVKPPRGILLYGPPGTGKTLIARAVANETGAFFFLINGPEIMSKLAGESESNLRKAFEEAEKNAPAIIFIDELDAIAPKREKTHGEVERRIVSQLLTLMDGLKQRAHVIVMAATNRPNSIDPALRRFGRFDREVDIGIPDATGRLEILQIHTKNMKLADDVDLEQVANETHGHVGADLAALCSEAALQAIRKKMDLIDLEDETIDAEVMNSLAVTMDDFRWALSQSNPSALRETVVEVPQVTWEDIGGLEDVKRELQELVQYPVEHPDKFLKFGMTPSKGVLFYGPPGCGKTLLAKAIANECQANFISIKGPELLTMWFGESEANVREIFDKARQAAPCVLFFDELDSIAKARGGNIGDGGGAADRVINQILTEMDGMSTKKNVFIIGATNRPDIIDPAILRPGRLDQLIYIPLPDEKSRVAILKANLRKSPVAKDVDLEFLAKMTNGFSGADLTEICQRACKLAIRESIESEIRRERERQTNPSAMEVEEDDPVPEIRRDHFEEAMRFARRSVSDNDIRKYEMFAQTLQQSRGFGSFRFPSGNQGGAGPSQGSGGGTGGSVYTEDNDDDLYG

[12] = target: T4, Long-chain-fatty-acid--AMP ligase FadD28 (Mycobacterium tuberculosis, UniProt P9WQ59); assay: Fluorescence polarization aasay to screen for inhibitors that compete for the binding of FadD28 to a bisubstrate Measured in Biochemical System Using Plate Reader - 2147-01_Inhibitor_Dose_CherryPick_Activity.; assay type: functional, Mycobacterium tuberculosis H37Rv
T4 sequence (P9WQ59 whole entry): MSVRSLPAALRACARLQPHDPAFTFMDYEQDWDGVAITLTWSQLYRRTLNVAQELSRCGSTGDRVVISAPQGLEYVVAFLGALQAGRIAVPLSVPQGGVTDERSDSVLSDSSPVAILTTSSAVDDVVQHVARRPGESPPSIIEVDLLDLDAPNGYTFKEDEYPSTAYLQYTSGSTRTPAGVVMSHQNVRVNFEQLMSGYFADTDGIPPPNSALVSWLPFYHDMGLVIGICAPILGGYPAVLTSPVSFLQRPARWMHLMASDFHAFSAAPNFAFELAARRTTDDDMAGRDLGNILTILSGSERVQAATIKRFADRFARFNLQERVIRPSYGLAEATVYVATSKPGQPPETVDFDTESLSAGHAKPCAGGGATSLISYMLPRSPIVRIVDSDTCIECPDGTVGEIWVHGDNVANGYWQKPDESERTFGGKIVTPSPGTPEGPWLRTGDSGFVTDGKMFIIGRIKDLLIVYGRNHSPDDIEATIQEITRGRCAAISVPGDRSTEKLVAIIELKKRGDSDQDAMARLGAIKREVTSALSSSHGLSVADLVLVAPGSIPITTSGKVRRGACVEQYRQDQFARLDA

[13] = cells; assay type: functional, cell-based
[14] = cells; assay type: functional, cell-based; remark: listed apart in the source

CCOC(=O)c1c(C)[nH]c(C)c1C(=O)COC(=O)c1ccc(S(=O)(=O)N(CC)CC)cc1
CC50 [1]: > 40 µM (active)

Cn1c(=O)cc2c3c(c(Nc4ccc(C=O)cc4)ccc31)C(=O)c1ccccc1-2
EC50 [2]: 8.04 µM (active)

COc1ccc(SCC(=O)N2c3ccccc3Sc3ccccc32)cc1
EC50 [3]: > 500 µM (not active)

O=C(CSc1nc(O)nc(-c2ccc(Cl)cc2)n1)Nc1cccc(Cl)c1
EC50 [4]: > 150 µM (not active) | EC50 [5]: 4.35 µM (active) | EC50 [3]: 26.2 µM (active)

Cc1[nH]c2ccccc2c1/C=C1/C(=N)N2C(=NC1=O)SN=C2S(=O)(=O)CC(C)C
IC50 [6]: 29.5 µM (active) | IC50 [7]: 9.51 µM (active) | EC50 [8]: > 53 µM (inactive) | IC50 [9]: > 50 µM (not active) | IC50 [10]: > 20 µM (inactive) | IC50 [11]: 12.3 µM (not active) | AC50 [12]: > 100 µM (inactive)

CC(C)N=C(S)NN=C1c2ccccc2-c2ccccc21
EC50 [13]: > 350 µM (not active) | CC50 [1]: > 40 µM (active) | EC50 [14]: > 350 µM (not active)

COc1cc(C2Nc3ccc4ccccc4c3C3=C2C(=O)CC(C)(C)C3)c(Br)cc1O (configuration not stated)
EC50 [2]: 13.1 µM (active)
